The assay addresses T1, PDE5A1 (human PDE5 from platelets) (Homo sapiens, UniProt O76074).
T1 construct: from tissue; host or cells: platelets from fresh blood of human donors (10,000 g supernatant of sonified platelets)
Briefly: Inhibition of type 5 phosphodiesterase (PDE5) activity, modified SPA test. In kind it is biochemical. The following applies: PDE5-containing human platelet lysate, 0.5 μM cGMP, value classes, read-out: PDE5A1 inhibitory values [measured as −logIC50 (mol/l)] (converted). Put shortly: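 Enzyme source: human platelet lysate (10,000 g supernatant), with 1 μM motapizone and 10 nM PDE2 inhibitor present. SPA format in 20 mM Tris pH 7.4, 5 mM Mg2+, 0.5 μM cGMP with [3H]cGMP tracer; 5 min preincubation at 37 °C, 15 min reaction, stopped with IBMX-containing beads. IC50 by non-linear regression.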
With `CCC(=O)N1CCC(NC(=O)c2c(C)[nH]c3c(-c4ccc(OC)cc4OCC4CC4)ccnc23)CC1` [Example E32, 7-[2-(Cyclopropylmethoxy)-4-methoxyphenyl]-2-methyl-N-(1-propanoylpiperidin-4-yl)-1H-pyrrolo[3,2-b]pyridine-3-carboxamide], the IC50 is below 1 nM.

Turning to `COc1ccc(-c2ccnc3c(C(=O)N[C@H]4CC[C@@H](NC(=O)CO)CC4)c(C)[nH]c23)c(OCC2CC2)c1` [Example F24, 7-[2-(Cyclopropylmethoxy)-4-methoxyphenyl]-N-{cis-4-[(hydroxyacetyl)amino]cyclohexyl}-2-methyl-1H-pyrrolo[3,2-b]pyridine-3-carboxamide], the IC50 is below 1 nM.

As for `Cc1ccc(OCC2CC2)c(-c2ccnc3c(C(=O)N[C@H]4CC[C@@H](NC(=O)[C@H](C)O)CC4)c(C)[nH]c23)c1` [Example F39, 7-[2-(Cyclopropylmethoxy)-5-methylphenyl]-N-(cis-4-{[(2S)-2-hydroxypropanoyl]amino}cyclohexyl)-2-methyl-1H-pyrrolo[3,2-b]pyridine-3-carboxamide], the IC50 is 1 to 10 nM.

Take `CCC(=O)N[C@H]1CC[C@@H](NC(=O)c2c(C)[nH]c3c(-c4c(OCC5CC5)ccc5c4OCO5)ccnc23)CC1` [Example E07, 7-[5-(Cyclopropylmethoxy)-1,3-benzodioxol-4-yl]-2-methyl-N-[cis-4-(propionylamino)cyclohexyl]-1H-pyrrolo[3,2-b]pyridine-3-carboxamide]: the IC50 is below 1 nM.

In the case of `CCC(=O)N1CCC(NC(=O)c2c(C)[nH]c3c(-c4cc(OC)ccc4OCC4CC4)ccnc23)CC1` [Example E41, 7-[2-(cyclopropylmethoxy)-5-methoxyphenyl]-2-methyl-N-(1-propanoylpiperidin-4-yl)-1H-pyrrolo[3,2-b]pyridine-3-carboxamide], the IC50 was below 1 nM.

Regarding `CCOC(=O)N1CCC(NC(=O)c2c(C)[nH]c3c(-c4c(OCC5CC5)ccc5c4OCO5)ccnc23)CC1` [Example E04, Ethyl 4-[({7-[5-(cyclopropylmethoxy)-1,3-benzodioxol-4-yl]-2-methyl-1H-pyrrolo[3,2-b]pyridin-3-yl}carbonyl)amino]piperidine-1-carboxylate], the IC50 is below 1 nM.

For `CCC(=O)N[C@H]1CC[C@@H](NC(=O)c2c(C)[nH]c3c(-c4cc(F)c(OC)cc4OCC4CC4)ccnc23)CC1` [Example E83, 7-[2-(Cyclopropylmethoxy)-5-fluoro-4-methoxyphenyl]-2-methyl-N-[cis-4-(propionylamino)cyclohexyl]-1H-pyrrolo[3,2-b]pyridine-3-carboxamide], the IC50 was below 1 nM.

As for `CC(=O)N[C@H]1CC[C@@H](NC(=O)c2c(C)[nH]c3c(-c4c(OCC5CC5)ccc5c4OCO5)ccnc23)CC1` [Example E06, N-(cis-4-acetamidocyclohexyl)-7-[5-(cyclopropylmethoxy)-1,3-benzodioxol-4-yl]-2-methyl-1H-pyrrolo[3,2-b]pyridine-3-carboxamide], the IC50 was below 1 nM.

`COc1ccc(OCC2CC2)c(-c2ccnc3c(C(=O)NC4CN(C(=O)C(C)O)CC4O)c(C)[nH]c23)c1` (mixture of isomers) [Example F33, Diastereomeric mixture of 7-[2-(Cyclopropylmethoxy)-5-methoxyphenyl]-N-{(3R*,4R*)-4-hydroxy-1-[(2S)-2-hydroxypropanoyl]pyrrolidin-3-yl}-2-methyl-1H-pyrrolo[3,2-b]pyridine-3-carboxamide and Diastereomeric mixture of 7-[2-(cyclopropylmethoxy)-5-methoxyphenyl]-N-{(3S*,4S*)-4-hydroxy-1-[(2S)-2-hydroxypropanoyl]pyrrolidin-3-yl}-2-methyl-1H-pyrrolo[3,2-b]pyridine-3-carboxamide]: the IC50 is 1 to 10 nM.

On to `CCC(=O)N1CCC(NC(=O)c2c(C)[nH]c3c(-c4cc(F)ccc4OCC4CC4)ccnc23)CC1` [Example E20, 7-[2-(Cyclopropylmethoxy)-5-fluorophenyl]-2-methyl-N-(1-propanoylpiperidin-4-yl)-1H-pyrrolo[3,2-b]pyridine-3-carboxamide], for which the IC50 is below 1 nM.

For the molecule `COc1cc(-c2ccnc3c(C(=O)NC4CCN(C(=O)CO)CC4)c(C)[nH]c23)c(OCC2CC2)cc1F` [Example F40, 7-[2-(Cyclopropylmethoxy)-4-fluoro-5-methoxyphenyl]-N-[1-(hydroxyacetyl)piperidin-4-yl]-2-methyl-1H-pyrrolo[3,2-b]pyridine-3-carboxamide], the IC50 is below 1 nM.

As to `CCC(=O)N[C@H]1CC[C@H](NC(=O)c2c(C)[nH]c3c(-c4cc(OC)ccc4OCC4CC4)ccnc23)CC1` [Example E44, 7-[2-(Cyclopropylmethoxy)-5-methoxyphenyl]-2-methyl-N-[trans-4-(propanoylamino)cyclohexyl]-1H-pyrrolo[3,2-b]pyridine-3-carboxamide], the IC50 is below 1 nM.

`CCC(=O)N[C@H]1CC[C@H](NC(=O)c2c(C)[nH]c3c(-c4ccc(F)cc4OCC4CC4)ccnc23)CC1` [Example E14]: the IC50 was below 1 nM.

As for `COCC(=O)N1CCC(NC(=O)c2c(C)[nH]c3c(-c4c(OCC5CC5)ccc5c4OCO5)ccnc23)CC1` [Example E03, 7-[5-(Cyclopropylmethoxy)-1,3-benzodioxol-4-yl]-N-[1-(methoxyacetyl)piperidin-4-yl]-2-methyl-1H-pyrrolo[3,2-b]pyridine-3-carboxamide], the IC50 is below 1 nM.

Regarding `COc1cc(-c2ccnc3c(C(=O)N[C@H]4CC[C@@H](NC(=O)CO)CC4)c(C)[nH]c23)c(OCC2CC2)cc1F` [Example F44, 7-[2-(Cyclopropylmethoxy)-4-fluoro-5-methoxyphenyl]-N-{cis-4-[(hydroxyacetyl)amino]cyclohexyl}-2-methyl-1H-pyrrolo[3,2-b]pyridine-3-carboxamide], the IC50 was below 1 nM.

`COc1cc(OCC2CC2)c(-c2ccnc3c(C(=O)N[C@H]4CC[C@H](NC(=O)[C@H](C)O)CC4)c(C)[nH]c23)cc1F` [Example F53, 7-[2-(Cyclopropylmethoxy)-5-fluoro-4-methoxyphenyl]-N-(trans-4-{[(2S)-2-hydroxypropanoyl]amino}cyclohexyl)-2-methyl-1H-pyrrolo[3,2-b]pyridine-3-carboxamide]: the IC50 was below 1 nM.

Take `COc1cc(OCC2CC2)c(-c2ccnc3c(C(=O)N[C@H]4CC[C@H](NC(=O)CO)CC4)c(C)[nH]c23)cc1F` [Example F52, 7-[2-(Cyclopropylmethoxy)-5-fluoro-4-methoxyphenyl]-N-[trans-4-(glycoloylamino)cyclohexyl]-2-methyl-1H-pyrrolo[3,2-b]pyridine-3-carboxamide]: the IC50 is below 1 nM.

Take `COCC(=O)N[C@H]1CC[C@H](NC(=O)c2c(C)[nH]c3c(-c4ccc(OC)cc4OCC4CC4)ccnc23)CC1` [Example E36, 7-[2-(Cyclopropylmethoxy)-4-methoxyphenyl]-N-{trans-4-[(methoxyacetyl)amino]cyclohexyl}-2-methyl-1H-pyrrolo[3,2-b]pyridine-3-carboxamide]: the IC50 was below 1 nM.

Consider `Cc1ccc(OCC2CC2)c(-c2ccnc3c(C(=O)N[C@H]4CC[C@H](NC(=O)CO)CC4)c(C)[nH]c23)c1` [Example F36, 7-[2-(Cyclopropylmethoxy)-5-methylphenyl]-N-{trans-4-[(hydroxyacetyl)amino]cyclohexyl}-2-methyl-1H-pyrrolo[3,2-b]pyridine-3-carboxamide], for which the IC50 is 1 to 10 nM.

Consider `COc1ccc(OCC2CC2)c(-c2ccnc3c(C(=O)NC4CCN(C(=O)[C@H](C)O)CC4)c(C)[nH]c23)c1` [Example F27, 7-[2-(Cyclopropylmethoxy)-5-methoxyphenyl]-N-{1-[(2S)-2-hydroxypropanoyl]piperidin-4-yl}-2-methyl-1H-pyrrolo[3,2-b]pyridine-3-carboxamide], for which the IC50 is below 1 nM.

For the molecule `CCC(=O)N1CC[C@@H](NC(=O)c2c(C)[nH]c3c(-c4cc(OC)c(F)cc4OCC4CC4)ccnc23)[C@H](O)C1` (relative stereo) [Example E74, 7-[2-(Cyclopropylmethoxy)-4-fluoro-5-methoxyphenyl]-N-[(3R*,4R*)-3-hydroxy-1-propanoylpiperidin-4-yl]-2-methyl-1H-pyrrolo[3,2-b]pyridine-3-carboxamide], the IC50 is below 1 nM.

As to `COc1cc(-c2ccnc3c(C(=O)N[C@H]4CC[C@@H](NC(=O)[C@H](C)O)CC4)c(C)[nH]c23)c(OCC2CC2)cc1F` [Example F45, 7-[2-(Cyclopropylmethoxy)-4-fluoro-5-methoxyphenyl]-N-(cis-4-{[abs.(2S)-2-hydroxypropanoyl]amino}cyclohexyl)-2-methyl-1H-pyrrolo[3,2-b]pyridine-3-carboxamide], the IC50 was below 1 nM.

With `COCC(=O)N[C@H]1CC[C@H](NC(=O)c2c(C)[nH]c3c(-c4cc(F)ccc4OCC4CC4)ccnc23)CC1` [Example E24, 7-[2-(Cyclopropylmethoxy)-5-fluorophenyl]-N-{trans-4-[(methoxyacetyl)amino]cyclohexyl}-2-methyl-1H-pyrrolo[3,2-b]pyridine-3-carboxamide], the IC50 is below 1 nM.

Consider `CC(=O)N1CCC(NC(=O)c2c(C)[nH]c3c(-c4cc(F)ccc4OCC4CC4)ccnc23)CC1` [Example E19, N-(1-Acetylpiperidin-4-yl)-7-[2-(cyclopropylmethoxy)-5-fluorophenyl]-2-methyl-1H-pyrrolo[3,2-b]pyridine-3-carboxamide], for which the IC50 is 1 to 10 nM.

Turning to `CCC(=O)N[C@H]1CC[C@H](NC(=O)c2c(C)[nH]c3c(-c4cc(F)ccc4OCC4CC4)ccnc23)CC1` [Example E23, 7-[2-(Cyclopropylmethoxy)-5-fluorophenyl]-2-methyl-N-[trans-4-(propanoylamino)cyclohexyl]-1H-pyrrolo[3,2-b]pyridine-3-carboxamide], the IC50 is below 1 nM.

The values are drawn from patent US8816085B2 (Takeda GmbH, priority 2009, dated 2014).
